Results reported in US8557816B2, “Aurora kinase modulators and method of use” (Amgen Inc., priority 2007, dated 2013).
Read-outs that look alike come from different tables or passages of the source.

Assays:
AuroraA-TPX2 = target: T1, AuroraA-TPX2 (Homo sapiens, UniProt O14965); assay: AuroraA-TPX2 Homogeneous Time Resolved Fluorescent (HTRF) kinase assay; assay type: biochemical
T1 construct: 20 μL of AuroraA-TPX2 KD GST for a final volume of about 41 μL; GST
T1 sequence (O14965 133-383 limits assumed): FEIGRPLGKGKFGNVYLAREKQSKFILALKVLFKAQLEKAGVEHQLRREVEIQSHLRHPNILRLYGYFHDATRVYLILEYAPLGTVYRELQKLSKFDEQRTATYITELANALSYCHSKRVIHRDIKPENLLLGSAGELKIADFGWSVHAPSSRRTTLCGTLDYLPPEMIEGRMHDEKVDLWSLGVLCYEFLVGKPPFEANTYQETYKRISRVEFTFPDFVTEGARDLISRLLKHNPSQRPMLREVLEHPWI
T1 sequence (Q9ULW0 1-43 partner limits assumed): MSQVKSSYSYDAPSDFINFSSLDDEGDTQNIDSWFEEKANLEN
Method in brief: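 HTRF read-out (Eu 615 nm to APC 655 nm) of phosphorylated biotin-PLK, detected with 0.02 nM europium anti-phosphoPLK antibody and 0.0005 mg/mL SA-APC after overnight equilibration.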

AuroraB = target: T2, AuroraB (Homo sapiens, UniProt Q96GD4); assay: AuroraB Homogeneous Time Resolved Fluorescent (HTRF) kinase assay; assay type: biochemical
T2 construct: 20 μL of AuroraB FL H is for a final volume of 41 μL; His
Method in brief: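 Read-out is time-resolved FRET between europium anti-phospho-H3 antibody and streptavidin-APC, added in EDTA buffer to stop the reaction and equilibrated about 60 min (ex 320, em 615 and 655 nm). Preceding reaction: ~90 min, full-length enzyme, ATP, 0.1 μM biotin-Histone H3 substrate, Mg/Mn HEPES buffer pH 7.5.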

HeLa cells = assay: HeLa cell 24 hr ploidy assay (DNA content); assay type: cell-based
Description: HeLa Cell 24 hr Ploidy Assay Protocol
The purpose of this assay is to evaluate the ability of selected individual compounds to induce Deoxyribonucleic acid (DNA) content (ploidy) in cells through failed cell division. Cell cycle analysis is a rapid and efficient way to evaluate the status of DNA content (ploidy) of a given cell. HeLa cells (1×10^4 HeLa cells/well) in 100 ul of media (MEM+10% FBS) were plated in 96-well plates (Packard View) and cultured for 24 hrs at 37° C. maintained in a 5% CO2 atmosphere. […] The compounds were serially diluted in DMSO (0.25% final concentration). The cells were fixed (3.7% Formaldehyde and 1% glutaraldehyde) and permeabilized (1×PBS with 1% BSA and 0.2% Triton X-100) in preparation for nuclear staining. The well plates were stained for 45 minutes at RT in the dark using Hoechest 33342 nuclear stain at 0.5 ug.ml (Stock of 10 mg/ml, Invitrogen, CA, Cat # H3570). The nuclear stain was removed by aspiration and the cells were washed with wash buffer. A Cellomics Array Scan Vti plate reader was used to acquire the DNA ploidy data of the cells using Cell Cycle bioapplication. Numbers for each of “valid cell count/well”, “% of 4N cells” and “% of >4Ncells” were calculated with the assistance of an Activity Base 5.1ca software and dose curves were generated using an XLFit software. With XLFit, final EC50 IP and EC50 transit values, as well as the Max and Min, were calculated for each curve.

HCT116 xenografts = assay: HCT116 xenograft model (human colon carcinoma), tumor growth inhibition; assay type: in vivo; conditions: p.o., athymic nude mice
Description: Compounds of the present invention were evaluated in HCT116 xenografts, a human colon carcinoma model. […] These cells were grown as subcutaneous xenografts in female HSD (Harlan Sprague Dawley) athymic nude mice. Mice were implanted subcutaneously with 2×10^6 cells in matrigel on day 0. Treatment was initiated on day 10 with compounds of the invention at the indicated dosage p.o for 2 consecutive-days per week (intermittent schedule, such as 2 days on-5 days off) or 7-days (continuous schedule) per week, for a selected number of weeks. For example, in one study, animals were dosed with selected compound samples BID on an intermittent dosing paradigm of two days on and then 5 days off per week, for four weeks (four dosing cycles) at 15, 7.5, and 3.75 mg/kg. Tumor growth inhibition and body weights were measured throughout the study and compared to the vehicle control group. All groups were provided nutritional supplements on a daily basis throughout the study to maintain body weight. Terminal neutrophil counts were taken at the end of this study. Measures were made by ANOVA followed by Scheffe post hoc test using StatView software v5.0.1.
10 Flasks containing a total of 7.68×10^8 HCT116 tumor cells were harvested for tumor cell implantation. HCT 116 cells were re-suspended to a cell concentration of about 2×10^7 cells/ml in serum-free McCoys 5A media+50% matrigel. Cell viability was measured to be about 99.3%.
Female Athymic Nude mice approximately 14 weeks of age (Harlan Sprague Dawley) were used for the experiment. Mice were housed five per filter-capped cage in sterile housing in an environmentally controlled room (temperature 23±2° C., relative humidity 50±20%) on a 12-hr light/dark cycle. […] On Day 9, tumor-bearing mice were measured and randomized into five groups (n=10). […] During the dosing period, mouse tumor volumes were measured with a digital caliper and weighed twice per week. Tumor volumes were calculated as follows: Tumor Volume (mm^3) [(W^2×L)/2] where width (W) is defined as the smaller of the 2 measurements and length (L) is defined as the larger of the 2 measurements.

[1] = average, read-out: AurA_IC50_IP (uM Avg)
[2] = average, read-out: AurB_IC50_IP (uM Avg)
[3] = 4N DNA content, average, read-out: 24h_4N Ploidy EC50_IP (uM Avg)

T2 sequence (Q96GD4 whole entry): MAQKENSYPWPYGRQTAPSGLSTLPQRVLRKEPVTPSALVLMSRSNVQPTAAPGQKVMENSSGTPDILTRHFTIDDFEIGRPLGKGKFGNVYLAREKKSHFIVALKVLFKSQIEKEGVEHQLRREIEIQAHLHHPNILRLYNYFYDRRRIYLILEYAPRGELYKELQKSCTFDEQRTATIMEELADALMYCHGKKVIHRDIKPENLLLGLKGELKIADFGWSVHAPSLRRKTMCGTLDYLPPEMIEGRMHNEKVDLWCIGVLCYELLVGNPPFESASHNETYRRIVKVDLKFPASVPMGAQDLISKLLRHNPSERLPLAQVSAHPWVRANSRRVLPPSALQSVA

IC50 (AuroraA-TPX2; [1]) | IC50 (AuroraB; [2]) | Compound | other results
0.135 µM | 0.595 µM | COc1cc2nccc(Sc3ccc(Nc4nnc(-c5ccc(Cl)cc5)c5ccccc45)cc3)c2nc1OC [compound 598] | –
0.794 µM | 0.256 µM | Brc1cnc2c(Oc3ccc(Nc4nnc(-c5ccccc5)c5ccccc45)cc3)ncnc2c1 [compound 599] | –
0.014 µM | 0.01 µM | COc1cnc2c(Sc3ccc(Nc4nnc(N5CCN6C[C@H](F)C[C@H]6C5)c5ccccc45)cc3)ccnc2c1 [compound 600] | –
0.021 µM | 0.012 µM | COc1cnc2c(Sc3ccc(Nc4nnc(N5CCN6CC(F)(F)C[C@H]6C5)c5ccccc45)cc3)ccnc2c1 [compound 601] | –
0.027 µM | 0.013 µM | COc1cnc2c(Oc3ccc(Nc4nnc(N5CCN6CCCCC[C@@H]6C5)c5ccccc45)cc3)ccnc2c1 [compound 604] | –
0.803 µM | 0.083 µM | COc1cnc2c(Sc3ccc(Nc4nnc(N5CCN(S(C)(=O)=O)CC5)c5ccccc45)cc3)ccnc2c1 [compound 605] | –
> 25 µM | 0.035 µM | COc1cc(OC)c2c(Oc3ccc(Nc4nnc(-c5ccccc5)c5ccccc45)cn3)ncnc2c1 [compound 606] | –
2.82 µM | 0.324 µM | COc1cnc2c(Oc3ccc(Nc4nnc(N5CCN(S(C)(=O)=O)CC5)c5ccccc45)cc3)ccnc2c1 [compound 607] | –
0.352 µM | 0.022 µM | COc1cnc2c(Sc3ccc(Nc4nnc(N5CCN(C(C)=O)CC5)c5ccccc45)cc3)ccnc2c1 [compound 608] | –
0.123 µM | 0.02 µM | CCc1cc(-c2ccccc2OC)nnc1Nc1ccc(Sc2ccnc3cc(OC)cnc23)cc1 [compound 609] | –
0.047 µM | 0.033 µM | Clc1ccc(-c2nnc(Nc3ccc(Oc4ccnc5cc(OCc6ccccc6)cnc45)cc3)c3ccccc23)cc1 [compound 610] | –
> 25 µM | 0.243 µM | COc1ccc2c(C(C)c3ccc(Nc4nnc(-c5ccc(Cl)cc5)c5ccccc45)cc3)ccnc2c1 (stereo not drawn) [compound 613] | –
0.223 µM | 0.046 µM | COc1ccc2c(C(O)c3ccc(Nc4nnc(-c5ccc(Cl)cc5)c5ccccc45)cc3)ccnc2c1 (stereo not drawn) [compound 614] | –
0.3 µM | 0.039 µM | COc1ccc2c(C(=O)c3ccc(Nc4nnc(-c5ccc(Cl)cc5)c5ccccc45)cc3)ccnc2c1 [compound 615] | –

The next lines start with the compound.

Compound | IC50 (AuroraA-TPX2; [1]) | IC50 (AuroraB; [2]) | other results
4-(4,5-dimethylthiophen-2-yl)-N-(4-(7-methoxy-1,5-naphthyridin-4-yloxy)phenyl)phthalazin-1-amine [Example 34] | 0.013 µM | 0.01 µM | EC50 (HeLa cells; [3]): 0.062 µM
4-(4-chlorophenyl)-N-(3-fluoro-4-(4-quinolinyloxy)phenyl)-1-phthalazinamine [compound 244] | 0.048 µM | 0.003 µM | EC50 (HeLa cells; [3]): 0.04 µM
COc1cnc2c(Oc3ccc(Nc4nnc(-c5ccc(Cl)cc5)c5ccccc45)cc3)ccnc2c1 [Example 160, 4-(4-chlorophenyl)-N-(4-((7-(methyloxy)-1,5-naphthyridin-4-yl)oxy)phenyl)-1-phthalazinamine] | 0.007 µM | 0.003 µM | inhibition of tumor growth (HCT116 xenografts; 3.75 mg/kg, 2-day dosing scheduling QD): ~86%
COc1cnc2c(Oc3ccc(Nc4nnc(-c5ccc6c(c5)OCO6)c5ccccc45)cc3)ccnc2c1 [Example 165, 4-(1,3-benzodioxol-5-yl)-N-(4-((7-(methyloxy)-1,5-naphthyridin-4-yl)oxy)phenyl)-1-phthalazinamine] | 0.009 µM | 0.007 µM | inhibition of tumor growth (HCT116 xenografts; 2.5 mg/kg, 2-day dosing scheduling BID): ~63%
COc1cnc2c(Sc3ccc(Nc4nnc(-c5ccccc5)c5ccccc45)cc3)ccnc2c1 [Example 207, N-(4-((7-(methyloxy)-1,5-naphthyridin-4-yl)thio)phenyl)-4-phenyl-1-phthalazinamine] | 0.06 µM | 0.009 µM | inhibition of tumor growth (HCT116 xenografts; 5.0 mg/kg, 2-day dosing scheduling QD): ~67%
CCc1cc(-c2ccc3c(c2)OCO3)nnc1Nc1ccc(Oc2ccnc3cc(OC)cnc23)cc1 [compound 594] | 0.094 µM | 0.051 µM | –
CCc1cc(-c2ccc(C)cc2)nnc1Nc1ccc(Nc2ccnc3cc(OC)cnc23)cc1 [compound 595] | 0.102 µM | 0.023 µM | –
CCc1cc(-c2ccc(C)cc2)nnc1Nc1ccc(Nc2ccnc3cc(C#N)ccc23)cc1 [compound 596] | 0.16 µM | 0.058 µM | –
COc1cc2nccc(Sc3ccc(Nc4nnc(-c5ccccc5)c5ccccc45)cc3)c2nc1OC [compound 597] | 0.246 µM | 0.681 µM | –
(7-(4-(4-(4-methylthiophen-2-yl)phthalazin-1-ylamino)phenylthio)thieno[3,2-b]pyridin-2-yl)(morpholino)methanone [compound 296] | – | – | IC50 (AuroraA-TPX2; given as class symbol, read-out: AurA_IC50_IP (class symbol)): < 0.1 µM; IC50 (AuroraB; given as class symbol, read-out: AurB_IC50_IP (class symbol)): < 0.1 µM; EC50 (HeLa cells; given as class symbol, read-out: 24h_4N Ploidy EC50_IP (class symbol)): < 0.1 µM
N-(5-(7-methoxy-1,5-naphthyridin-4-yloxy)pyridin-2-yl)-4-phenylphthalazin-1-amine [Example 54] | 0.176 µM | 0.02 µM | EC50 (HeLa cells; [3]): 0.028 µM
